The values below come from patent US6734168B2, “Endothelial monocyte activating polypeptide II: a mediator which activates host response” (The Trustees of Columbia University in the City of New York, priority 1993, dated 2004).

What all share (assay type): cell-based
The subject of test [1] is human MPs. The test is described as follows: [Ca2+]i measurement in MPs (fura-2). The procedure: (§1) [Ca^2+1]i measurements. PMNs or MPs (2×10^7 cells in each case) were incubated with fura-2 AM (1 μM) and pluronic detergent (0.02%) for 12 min at room temperature, diluted sixfold, and incubated for a further 30 min at room temperature to allow for complete hydrolysis of the dye. Cells were then resuspended in HEPES-buffered saline at 5×10^5 cells/ml (32). For experiments using MPs, sulfinpyrazone (0.5 mM) was included at all steps to minimize both dye sequestration into intracellular organelles and dye efflux (33). Fluorescence of fura-2 was monitored at 37° C. in a thermostatically-controlled cuvette installed in a Perkin Elmer Model 650-40 fluorescense spectrophotometer. Calibration of [Ca^2+]i was performed as described (34).
For determination of [Ca^2+] in PMSs and MPs, cells (2×10^7 in each case) were incubated with fura-2 AM (1 um) and pluronci detergent (0.02%) at room temperature, diluted 6-fold, and incubated for a further 30 min at room temperature to allow for complete hydrolysis of the dye. Cells were then resuspended in HEPES-buffered saline at 5×10^5 cells/ml (32). For MPs, sulfinpyrazone (0.5 mM) was included at all steps to minimize both dye sequestration into intracellular organelles and dye efflux (33). Fluorescence of fura-2 was monitored at 37° C. in a thermostatically controlled cuvette installed in a Perkin Elmer model 650-40 fluorescence spectrophotometer. […]

The subject of the next test is human umbilical vein ECs. As to the kind of experiment: EC tissue factor activity, Factor VIIa-dependent Factor Xa formation. The procedure: (§2) Tissue factor activity of monolayers of ECs and MPs was determined (7) after incubation with EMAP II-derived peptides at 37° C. for 4-12 hrs by washing cultures with HEPES (10 MM; pH 7.4), NaCl (137 mM), KCl (4 mM), CaCl2 (3 mM), glucose (10 mM), bovine serum albumin (0.5 mg/ml), and addition of 0.5 ml of the same buffer along with purified human Factor VIIa (1 nM) and Factor X (200 nM) for 45 min at 37° C. Aliquots (0.05 ml) of the reaction mixture (one per well) were withdrawn at 15 min intervals, added to a buffer containing Tris (50 mM; pH 7.9), NaCl (175 mM), EDTA (5 mM) and bovine serum albumin (0.5 mg/ml; 0.05 ml), and the chromogenic substrate Spectrozyme Factor Xa (American Diagnositca, Inc., Greenwich Conn.; 0.01 ml; 2 mM). Cleavage of the substrate was monitored by the change in absorbance at 405 nm (BioKinetics Reader, Winooski, Vt.). Factor Xa concentration was determined by comparison with a standard curve generated with known amounts of purified human Factor Xa. Human, plasma-derived Factors VIIa and X were purified to homogeneity as described (31).
(§3) In Vitro Assays of EC, MP, and PMN Functions-Cell-associated tissue factor was assayed by its functional activity, using purified coagulation proteins, and tissue factor mRNA was detected by PCR. […] The concentration of Factor Xa was determined based on a standard curve generated with purified Factor Xa. […]

Test [2] concerns human MPs. The test is described as follows: MP tissue factor activity, Factor VIIa-dependent Factor Xa formation. The procedure: as §2, §3
In test [3] the test system is human PMNs. The test is described as follows: Release of peroxidase generating activity (myeloperoxidase) from PMNs. Particulars: 60 min at 37° C. How it is done: Release of peroxidase generating activity from PMNs (myeloperoxidase) was determined by oxidation of the peroxidase substrate 3,3′,5,5′-tetramethylbenzidine (TMB; Sigma), monitored at 620 nm, as described (35). In brief, PMNs (3×10^6 cells/ml; 0.05 ml) were incubated for 60 min at 37° C. with RPMI 1640 containing fetal calf serum (1%) alone or in the presence of phorbol ester (phorbol 12-myristate 13-acetate; Sigma) or EMAP II-derived peptides. TMP and hydrogen peroxide were added for 1 min at room temperature, and the reaction was stopped with sodium azide and acetic acid. Peroxidase activity, assessed by oxidation of TMB, was determined spectrophotometrically and is reported as percent total peroxidase activity (100% is the activity observed with that number of PMNs following 60 min exposure to phorbol ester, 10 μM). A standard curve was generated by assaying peroxidase activity from different numbers of PMNs treated with phorbol ester (10 μM) under these conditions, and peroxidase activity of PMN/EMAP II peptide incubation mixtures was determined by comparison with the linear portion of the standard curve (35).
Release of Peroxidase Generating Activity from PMNs (myeloperoxidase)—Release was determined by a previously described assay (36) which monitors oxidation of the substrate 3,3′,5,5′-tetramethylbenzidine (TMB; Sigma). […]

Test [4] has as its system human PMNs. The test is described as follows: [Ca2+]i measurement in PMNs (fura-2). The procedure: as §1
For determination of [Ca^2+] in PMSs and MPs, cells (2×10^7 in each case) were incubated with fura-2 AM (1 um) and pluronci detergent (0.02%) at room temperature, diluted 6-fold, and incubated for a further 30 min at room temperature to allow for complete hydrolysis of the dye. Cells were then resuspended in HEPES-buffered saline at 5×10^5 cells/ml (32). For MPs, sulfinpyrazone (0.5 mM) was included at all steps to minimize both dye sequestration into intracellular organelles and dye efflux (33). Fluorescence of fura-2 was monitored at 37° C. in a thermostatically controlled cuvette installed in a Perkin Elmer model 650-40 fluorescence spectrophotometer. Calibration of [Ca^2+] was performed as described (34).

For “ASRLDLRIGRIVTAKY [residues #6-20 from EMAP II, Cys to Arg substitution at position #15, and a C-terminal Tyr]”, in the test on human MPs [1], the “Rise in [Ca2+]i in MPs” value is “results in elevation of [Ca^2+]i”. Moreover, in the test with human umbilical vein ECs, the “Induction of tissue factor activity in ECs (Factor VIIa-dependent Factor X activation)” value is reported as “did not demonstrate induction of tissue factor activity”. In addition, in the test with human MPs [2], the “Induction of tissue factor activity in MPs (Factor VIIa-dependent Factor X activation)” value is given as “did not demonstrate induction of tissue factor activity”. Further, the “Release of PMN myeloperoxidase activity (peroxidase generation assay)” value in the test with human PMNs [3] was “released PMN myeloperoxidase activity”. Besides, the “Rise in [Ca2+]i in PMNs” value in the test on human PMNs [4] was “induced a rise in [Ca^2+]i”.
